Source: article PMC3119515 (Bioorganic & medicinal chemistry, 2011)

Columns and labels:
[1] = test system: Yellow Fever Virus (YF-IRES-Luc); test: microbe, parasite or virus in culture; assay type: cell-based
fire-fly luciferase = fire-fly luciferase (Photinus pyralis, UniProt P08659, K549A/L550V/N119G/N50D/S548I); test: Direct luciferase inhibition assay; assay type: cell-based; conditions: cells transfected with luciferase-pcDNA3; data not shown
[2] = In vitro hydrolytic stability assay utilizing rat plasma
uninfected BHK cells = assay type: cell-based, hamster

fire-fly luciferase, sequence (P08659 whole entry N50D/N119G/S548I/K549A/L550V): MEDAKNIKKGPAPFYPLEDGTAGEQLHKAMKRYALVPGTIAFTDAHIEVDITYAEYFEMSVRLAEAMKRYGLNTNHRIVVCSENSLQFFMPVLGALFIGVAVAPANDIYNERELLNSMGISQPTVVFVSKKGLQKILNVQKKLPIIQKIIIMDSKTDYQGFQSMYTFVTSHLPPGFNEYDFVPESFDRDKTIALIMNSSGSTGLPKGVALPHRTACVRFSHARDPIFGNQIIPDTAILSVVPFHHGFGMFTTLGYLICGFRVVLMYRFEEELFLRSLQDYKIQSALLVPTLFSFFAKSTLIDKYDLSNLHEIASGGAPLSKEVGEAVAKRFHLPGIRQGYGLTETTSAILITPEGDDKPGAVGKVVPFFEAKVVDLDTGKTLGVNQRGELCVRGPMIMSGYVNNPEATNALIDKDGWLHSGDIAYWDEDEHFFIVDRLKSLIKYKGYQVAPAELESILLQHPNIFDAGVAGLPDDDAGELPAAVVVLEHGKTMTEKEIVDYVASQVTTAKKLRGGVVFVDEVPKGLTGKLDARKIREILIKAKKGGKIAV

In the case of `COC(=O)c1sc(-c2ccc(C(C)(C)C)cc2)nc1C` [Compound 5l], the “antiflaviviral activity (in words)” value [1] is reported as “inactive”.
With `CCCCc1ccc(-c2nc(C)c(/C(C)=N/NC(=N)N)s2)cc1` [Compound 12, 2-(1-(2-(4-Butylphenyl)-4-methylthiazol-5-yl)ethylidene)hydrazinecarboximidamide] the “reduction of luciferase activity” value (fire-fly luciferase) was “No reduction of luciferase activity was observed” and the “half-life, times higher than the lead compound 2” value [2] was “around 6 times”.
With `COC(=O)c1sc(-c2ccccc2)nc1C(Br)Br` [Compound 6a, Methyl 4-(Dibromomethyl)-2-phenylthiazole-5-carboxylate] the “antiflaviviral activity (in words)” value [1] was “very weak antiflaviviral inhibitory activity”.
With `COC(=O)c1sc(Cc2ccccc2)nc1C` [Compound 5o] the “antiflaviviral activity (in words)” value [1] was “inactive”.
With `CCCCc1ccc(-c2nc(C)c(C(=O)O)s2)cc1` [Compound 8, 2-(4-Butylphenyl)-4-methylthiazole-5-carboxylic Acid] the “antiflaviviral activity (in words)” value [1] was “inactive”.
In the case of “Methyl 4-Methyl-2-(naphthalen-2-yl)thiazole-5-carboxylate [Compound 5k]”, the EC50 [1] is reported as 35.7 ± 22.7 µM, the “% Inhibition (reduction in luciferase activity)” value ([1]; 50 µM) is reported as 78.4% and the GI50 (uninfected BHK cells) is reported as 434 ± 23.3 µM.
In the case of `COC(=O)c1sc(-c2cccc(Br)c2)nc1C(Br)Br` [Compound 6c, Methyl 2-(3-Bromophenyl)-4-(dibromomethyl)thiazole-5-carboxylate], the “antiflaviviral activity (in words)” value [1] is reported as “weak activity”.
With `COC(=O)c1sc(-c2ccc(Cl)c(Cl)c2)nc1C(Br)Br` [Compound 6j, Methyl 4-(Dibromomethyl)-2-(3,4-dichlorophenyl)thiazole-5-carboxylate] the inhibition at 50 µM ([1]; Yellow fever virus, BHK, read-out: % Inhibition (reduction in luciferase activity)) was under 50%.
